Measurements taken from ChEMBL document CHEMBL4831493 (Eur J Med Chem, 2021).
The source made the active and inactive calls. The calls are words filed in the database; no cut-off is given here.

Assays:
[1] = target: Mitogen-activated protein kinase 12 (Homo sapiens) (UniProt P53778); assay: Inhibition of p38gamma (unknown origin) at 0.3 uM
[2] = MRT (0 to infinity) in Sprague-Dawley rat at 10 mg/kg, po measured up to 24 hrs by LC-MS/MS analysis; format: ADME, organism-based; settings: in vivo
[3] = target: Glycogen synthase kinase-3 beta (Mus musculus) (UniProt Q9WV60); assay: Inhibition of GSK3beta in mouse N2a cells overexpressing human tau assessed as decrease in tau phosphorylation at Ser396 residue at 0.9 uM measured after 6 hrs by Western blot assay; format: cell-based
[4] = target: Mitogen-activated protein kinase 10 (Homo sapiens) (UniProt P53779); assay: Inhibition of JNK3 (unknown origin) at 0.3 uM
[5] = target: T1, Acetylcholinesterase (Mus musculus) (UniProt P21836); settings: ICR, dose 10.0 mg/kg, time 1.5 hrs
T1 sequence (whole entry): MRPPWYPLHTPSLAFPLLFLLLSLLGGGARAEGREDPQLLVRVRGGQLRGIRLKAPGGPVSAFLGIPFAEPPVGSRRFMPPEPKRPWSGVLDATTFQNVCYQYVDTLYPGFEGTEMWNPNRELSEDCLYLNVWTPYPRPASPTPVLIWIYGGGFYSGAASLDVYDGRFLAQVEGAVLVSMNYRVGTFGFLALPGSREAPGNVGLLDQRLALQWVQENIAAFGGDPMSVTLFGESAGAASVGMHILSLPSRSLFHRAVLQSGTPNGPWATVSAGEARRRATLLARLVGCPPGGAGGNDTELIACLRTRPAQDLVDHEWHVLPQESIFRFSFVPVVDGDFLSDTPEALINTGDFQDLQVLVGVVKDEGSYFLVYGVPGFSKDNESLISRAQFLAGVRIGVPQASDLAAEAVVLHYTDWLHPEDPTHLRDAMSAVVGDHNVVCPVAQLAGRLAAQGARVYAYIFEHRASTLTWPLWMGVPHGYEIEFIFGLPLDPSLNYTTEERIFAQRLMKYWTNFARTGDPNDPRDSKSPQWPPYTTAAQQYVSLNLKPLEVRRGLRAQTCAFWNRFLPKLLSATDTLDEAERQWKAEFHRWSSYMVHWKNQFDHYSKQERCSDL

[6] = target: Dual specificity tyrosine-phosphorylation-regulated kinase 1A (Homo sapiens) (UniProt Q13627); assay: Inhibition of dyrk1 alpha (unknown origin) at 0.3 uM
[7] = MRT (0 to infinity) in Sprague-Dawley rat at 1 mg/kg, iv measured up to 24 hrs by LC-MS/MS analysis; format: ADME, organism-based; settings: in vivo
[8] = target: Dual specificity tyrosine-phosphorylation-regulated kinase 1B (Homo sapiens) (UniProt Q9Y463); assay: Inhibition of dyrk1 beta (unknown origin) at 0.3 uM
[9] = AUC (0 to infinity) in Sprague-Dawley rat at 10 mg/kg, po measured up to 24 hrs by LC-MS/MS analysis; format: ADME, organism-based; design: route oral, dose 10 mg/kg, time <=24; settings: in vivo
[10] = target: Cyclin-dependent kinase 2 (Homo sapiens) (UniProt P24941); assay: Inhibition of CDK2 (unknown origin) at 0.3 uM
[11] = target: Mitogen-activated protein kinase 9 (Homo sapiens) (UniProt P45984); assay: Inhibition of JNK2 (unknown origin) at 0.3 uM
[12] = Toxicity in amyloid beta (1 to 42)-induced mouse model of Alzheimer's disease assessed as changes in body weight at 10 mg/kg/day, po measured after 9 days; format: organism-based; settings: in vivo, 216 h, time 9 day
[13] = Toxicity in amyloid beta (1 to 42)-induced mouse model of Alzheimer's disease assessed as changes in swimming speed at 10 mg/kg/day, po measured after 9 days; format: organism-based; settings: in vivo, 216 h, time 9 day
[14] = target: Mitogen-activated protein kinase 11 (Homo sapiens) (UniProt Q15759); assay: Inhibition of p38beta (unknown origin) at 0.3 uM
[15] = Drug level in ICR mouse brain at 10 mg/kg, po measured after 1.5 hrs by LC/MS/MS analysis; format: ADME, organism-based; settings: read-out: Ct
[16] = Ratio of drug level in brain to plasma of ICR mouse at 10 mg/kg, po measured after 1 hr by LC/MS/MS analysis; format: ADME, organism-based; settings: brain and plasma
[17] = Effective permeability of the compound by PAMPA-BBB assay; format: ADME; settings: read-out: Peff
[18] = target: Cyclin-dependent kinase 1 (Homo sapiens) (UniProt P06493); assay: Inhibition of CDK1 (unknown origin) at 0.3 uM
[19] = target: Cyclin-dependent kinase 9 (Homo sapiens) (UniProt P50750); assay: Inhibition of CDK9 (unknown origin) at 0.3 uM
[20] = Ratio of drug level in brain to plasma of ICR mouse at 10 mg/kg, po measured after 1.5 hrs by LC/MS/MS analysis; format: ADME, organism-based; settings: brain and plasma

Sequence of Cyclin-dependent kinase 9 (Homo sapiens) (P50750 whole entry): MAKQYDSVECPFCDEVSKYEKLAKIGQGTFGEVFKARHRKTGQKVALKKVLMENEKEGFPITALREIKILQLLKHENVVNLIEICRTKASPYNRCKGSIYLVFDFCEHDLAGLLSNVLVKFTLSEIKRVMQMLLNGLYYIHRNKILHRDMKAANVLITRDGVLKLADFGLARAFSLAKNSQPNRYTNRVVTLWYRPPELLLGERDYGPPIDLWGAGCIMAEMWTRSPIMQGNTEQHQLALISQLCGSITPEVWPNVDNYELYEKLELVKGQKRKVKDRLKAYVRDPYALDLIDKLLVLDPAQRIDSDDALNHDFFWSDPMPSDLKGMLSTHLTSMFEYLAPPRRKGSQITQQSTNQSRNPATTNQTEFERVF
Sequence of Dual specificity tyrosine-phosphorylation-regulated kinase 1B (Homo sapiens) (Q9Y463 whole entry, looked up): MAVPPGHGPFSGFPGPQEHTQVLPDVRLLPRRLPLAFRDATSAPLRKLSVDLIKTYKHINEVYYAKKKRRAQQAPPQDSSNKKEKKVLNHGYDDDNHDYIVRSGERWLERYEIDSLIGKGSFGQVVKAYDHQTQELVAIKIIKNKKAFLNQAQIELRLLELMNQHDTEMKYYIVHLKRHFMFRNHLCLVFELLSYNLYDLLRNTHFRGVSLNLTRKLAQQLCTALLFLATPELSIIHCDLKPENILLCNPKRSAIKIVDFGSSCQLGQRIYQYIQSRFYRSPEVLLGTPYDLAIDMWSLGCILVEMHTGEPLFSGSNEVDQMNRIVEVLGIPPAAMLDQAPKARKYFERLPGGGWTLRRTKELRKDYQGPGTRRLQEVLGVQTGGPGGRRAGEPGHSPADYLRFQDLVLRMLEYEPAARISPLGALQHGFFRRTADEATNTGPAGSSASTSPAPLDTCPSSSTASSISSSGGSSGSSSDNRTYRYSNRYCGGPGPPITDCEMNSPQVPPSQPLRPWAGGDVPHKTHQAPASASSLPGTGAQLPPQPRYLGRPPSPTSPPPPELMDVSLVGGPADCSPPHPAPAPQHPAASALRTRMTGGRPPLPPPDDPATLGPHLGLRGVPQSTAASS
Sequence of Mitogen-activated protein kinase 12 (Homo sapiens) (P53778 whole entry): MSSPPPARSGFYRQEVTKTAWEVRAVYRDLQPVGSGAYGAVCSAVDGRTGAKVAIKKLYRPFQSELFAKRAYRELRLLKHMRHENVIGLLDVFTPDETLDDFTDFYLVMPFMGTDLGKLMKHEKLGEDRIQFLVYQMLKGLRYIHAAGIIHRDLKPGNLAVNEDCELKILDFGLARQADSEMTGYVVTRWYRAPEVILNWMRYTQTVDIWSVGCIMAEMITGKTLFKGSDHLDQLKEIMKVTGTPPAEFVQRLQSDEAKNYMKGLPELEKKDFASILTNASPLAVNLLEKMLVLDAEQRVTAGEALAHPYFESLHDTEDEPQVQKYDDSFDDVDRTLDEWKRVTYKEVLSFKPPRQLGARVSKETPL
Sequence of Mitogen-activated protein kinase 11 (Homo sapiens) (Q15759 whole entry): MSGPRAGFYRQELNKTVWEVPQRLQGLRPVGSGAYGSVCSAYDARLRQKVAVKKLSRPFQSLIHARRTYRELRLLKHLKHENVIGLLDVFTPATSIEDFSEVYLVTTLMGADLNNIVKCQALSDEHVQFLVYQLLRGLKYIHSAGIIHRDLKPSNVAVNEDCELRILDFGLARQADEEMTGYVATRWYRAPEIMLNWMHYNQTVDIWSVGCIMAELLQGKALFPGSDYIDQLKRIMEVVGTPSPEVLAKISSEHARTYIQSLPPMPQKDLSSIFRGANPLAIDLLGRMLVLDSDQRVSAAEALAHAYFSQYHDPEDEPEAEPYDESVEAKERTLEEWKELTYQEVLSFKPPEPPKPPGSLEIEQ
Sequence of Mitogen-activated protein kinase 10 (Homo sapiens) (P53779 whole entry): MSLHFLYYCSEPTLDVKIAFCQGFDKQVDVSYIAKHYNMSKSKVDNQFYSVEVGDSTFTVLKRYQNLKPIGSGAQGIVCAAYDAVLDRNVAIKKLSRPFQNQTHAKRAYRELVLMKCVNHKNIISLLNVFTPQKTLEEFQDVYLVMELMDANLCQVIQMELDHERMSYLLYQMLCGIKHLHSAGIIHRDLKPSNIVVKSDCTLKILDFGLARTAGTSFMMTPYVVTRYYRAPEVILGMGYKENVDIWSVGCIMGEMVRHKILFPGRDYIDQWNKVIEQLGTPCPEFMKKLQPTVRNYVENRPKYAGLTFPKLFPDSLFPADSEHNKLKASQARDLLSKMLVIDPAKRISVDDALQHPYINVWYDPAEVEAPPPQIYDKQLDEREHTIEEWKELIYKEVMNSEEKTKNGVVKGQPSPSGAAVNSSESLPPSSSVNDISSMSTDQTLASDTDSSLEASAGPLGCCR
Sequence of Glycogen synthase kinase-3 beta (Mus musculus) (Q9WV60 whole entry, looked up): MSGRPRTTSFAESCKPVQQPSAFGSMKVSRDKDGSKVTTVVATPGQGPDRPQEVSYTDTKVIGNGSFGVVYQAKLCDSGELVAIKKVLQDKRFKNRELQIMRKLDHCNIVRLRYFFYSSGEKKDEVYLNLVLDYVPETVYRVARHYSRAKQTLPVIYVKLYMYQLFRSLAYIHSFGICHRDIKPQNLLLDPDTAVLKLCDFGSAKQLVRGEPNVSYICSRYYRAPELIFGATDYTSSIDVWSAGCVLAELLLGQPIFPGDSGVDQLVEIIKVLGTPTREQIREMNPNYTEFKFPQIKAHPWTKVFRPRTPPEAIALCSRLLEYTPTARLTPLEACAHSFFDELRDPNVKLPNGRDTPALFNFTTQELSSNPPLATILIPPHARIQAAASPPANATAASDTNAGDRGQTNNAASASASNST
Sequence of Mitogen-activated protein kinase 9 (Homo sapiens) (P45984 whole entry, looked up): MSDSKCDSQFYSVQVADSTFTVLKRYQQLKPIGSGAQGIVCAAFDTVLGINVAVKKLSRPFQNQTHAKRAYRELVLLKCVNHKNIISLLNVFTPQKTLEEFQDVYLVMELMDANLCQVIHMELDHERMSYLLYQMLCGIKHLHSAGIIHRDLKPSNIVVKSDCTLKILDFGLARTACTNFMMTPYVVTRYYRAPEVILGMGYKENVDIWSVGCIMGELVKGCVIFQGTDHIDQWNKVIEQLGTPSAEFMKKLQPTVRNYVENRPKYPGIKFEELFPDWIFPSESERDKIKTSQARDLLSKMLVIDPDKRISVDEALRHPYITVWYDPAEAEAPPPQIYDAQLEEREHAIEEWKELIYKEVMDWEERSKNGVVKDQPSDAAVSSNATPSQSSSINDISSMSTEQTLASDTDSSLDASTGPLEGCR
Sequence of Cyclin-dependent kinase 1 (Homo sapiens) (P06493 whole entry, looked up): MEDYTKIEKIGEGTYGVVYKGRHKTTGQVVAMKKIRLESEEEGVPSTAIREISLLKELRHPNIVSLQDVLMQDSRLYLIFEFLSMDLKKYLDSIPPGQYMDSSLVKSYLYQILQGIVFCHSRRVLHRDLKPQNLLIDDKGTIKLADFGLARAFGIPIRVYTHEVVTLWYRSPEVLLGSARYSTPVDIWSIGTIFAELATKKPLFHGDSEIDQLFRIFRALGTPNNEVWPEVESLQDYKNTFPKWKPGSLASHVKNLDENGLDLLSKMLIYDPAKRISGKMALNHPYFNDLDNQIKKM

For `O=C(Nc1cncc(OCC2CCN(Cc3ccc(F)cc3)CC2)c1)c1ccnc(NC(=O)C2CC2)c1`, the inhibition [1] was “inactive”, the MRT inf [2] was 10.9 h and the inhibition [3] was “inactive”. The inhibition [4] was “inactive”, the inhibition [5] was 46.2% and the inhibition [6] was “inactive”. For the same compound, the MRT inf [7] was 5.1 h, the inhibition [8] was “inactive” and the AUC(0-inf) [9] was 1260 ng·h/mL. The inhibition [10] was “inactive”, the inhibition [11] was “inactive” and the Activity [12] was “Non-Toxic”. The Activity [13] was “Non-Toxic”, the inhibition [14] was “inactive” and the concentration at 1.5 h [15] was 113 ng/g. For the same compound, the Kp at 1 h [16] was 0.153, the Papp [17] was 10.5 ×10⁻⁶ cm/s and the inhibition [18] was “inactive”. For the same compound, the inhibition [19] was “inactive” and the Kp at 1.5 h [20] was 0.33.
